Where a SMILES comes first, the peptide text is derived from it. [ ]: non-standard residue; d: D form.
Experiments:
Format in all cases: cell-based
[1] = test system: clinical strains of E. cloacae; test: MIC, microdilution, clinical strains; settings: 0.02% BSA, 0.2% acetic acid
Protocol: (§1) Minimum inhibition concetrations (MICs) were determined against Escherichia coli (ATCC 25922), Staphylococcus aureus (ATCC 25923), Klebsiella pneumoniae (ATCC 10031) and Pseudomonas aeruginosa (ATCC 27853). Also clinical strains of E. coli, K. pneumoniae, E. cloacae, P. aeruginosa, Serratia marcescens, Proteus mirabilis, S. pneumoniae, Acinetobacter baumannii, A. johnsonii and S. aureus were used for MICs assays. Additionally, clinical strains of yeast including Candida albicans, C. glabrata, C. parapsilosis and C. quillermondiae were used. The susceptibility of these microorganisms to Chain peptides were determined using micro broth dilution assay. Colonies of the respective microorganism from Muller Hinton (MH) agar plates incubated overnight were suspended in MH broth media and final concentration of microorganism was adjusted to 5.0×10^5 cfu/ml. An aliquot of 10 μl of each Chain peptide, or gentamicin, tetracycline as reference antibiotics were added in differing concentrations along with 90 μl of bacterial suspension to 96 well polypropylene plates and incubated at 37° C. for 20 to 24 hours. Concentrations of Chain peptides and reference antibiotics ranged from 0.125 to 128 μg/ml and the MICs were recorded as the lowest concentration with no visual growth of bacteria. Similarly, antifungal MICs were tested in Potato dextrose broth.
(§2) Clinical strains of yeasts including Candida albicans, C. glabrata, C. parapsilosis and C. quillermondiae were also tested with the 12 Chain peptides. The minimum inhibitory concentration (MICs) varied between these peptides and are presented in Tables 4a, 4b, 4c and 5a, 5b, 5c. Peptides Chain 105, 201 and 308 are broad spectrum antimicrobials with MICs between 0.5-32 μg/ml against all the bacteria and yeasts tested, except Serratia marcescens and Proteus mirabilis, against which the MICs were between 64-128 μg/ml. Peptide Chain 306 has narrow spectrum activity against E. coli at 1 μg/ml and for the rest of the bacterial strains at >32 μg/ml (FIG. 10c).

[2] = test system: clinical strains of E. coli; test: MIC, microdilution, clinical strains; settings: microdilution, Muller Hinton broth-cation adjusted, 0.02% BSA, 0.2% acetic acid
Protocol: as §1, §2

[3] = test system: clinical strains of K. pneumoniae; test: MIC, microdilution, clinical strains; settings: 0.02% BSA, 0.2% acetic acid
Protocol: as §1, §2

[4] = test system: clinical strains of P. aeruginosa; test: MIC, microdilution, clinical strains; settings: 0.02% BSA, 0.2% acetic acid
Protocol: as §1, §2

[5] = test system: clinical strains of Proteus mirabilis; test: MIC, microdilution, clinical strains; settings: 0.02% BSA, 0.2% acetic acid
Protocol: as §1, §2

[6] = test system: clinical strains of S. aureus; test: MIC, microdilution, clinical strains; settings: 0.02% BSA, 0.2% acetic acid
Protocol: as §1, §2

[7] = test system: clinical strains of S. pneumoniae; test: MIC, microdilution, clinical strains; settings: 0.02% BSA, 0.2% acetic acid
Protocol: as §1, §2

[8] = test system: clinical strains of Serratia marcescens; test: MIC, microdilution, clinical strains; settings: 0.02% BSA, 0.2% acetic acid
Protocol: as §1, §2

C. glabrata = test: MIC, clinical yeast strains
Protocol: as §1, §2

C. parapsilosis = test: MIC, clinical yeast strains
Protocol: as §1, §2

Candida albicans = test: MIC, clinical yeast strains
Protocol: as §1, §2

C. quillermondiae = test: MIC, clinical yeast strains; design: Minimum inhibitory concentration: unit: μg/ml; settings: C. quillermondiae clinical yeast strain 1
Protocol: as §1, §2

CC[C@@H](C)[C@@H](N)C(=O)N[C@H](Cc1c[nH]c2ccccc12)C(=O)N[C@H](CCCCN)C(=O)N[C@H](CCCNC(=N)N)C(=O)N[C@H](Cc1ccccc1)C(=O)N[C@H](CCCNC(=N)N)C(=O)N[C@H](CC(C)C)C(=O)N[C@H](Cc1ccccc1)C(=O)N[C@H](CCCCN)C(=O)N[C@H](CCCCN)C(=O)N[C@H](Cc1c[nH]c2ccccc12)C(=O)O [Chain304D] (H-[dI][dW][dK][dR][dF][dR][dL][dF][dK][dK][dW]-OH)
Minimum inhibitory concentration ([1]; Enterobacter cloacae strain 1, Muller Hinton broth-cation adjusted): 64
Minimum inhibitory concentration ([1]; Enterobacter cloacae strain 2, Muller Hinton broth-cation adjusted): 64
Minimum inhibitory concentration ([1]; Enterobacter cloacae strain 3, Muller Hinton broth-cation adjusted): 128
Minimum inhibitory concentration ([1]; Enterobacter cloacae strain 4, Muller Hinton broth-cation adjusted): 128
Minimum inhibitory concentration ([1]; Enterobacter cloacae strain 5, Muller Hinton broth-cation adjusted): 32
Minimum inhibitory concentration ([2]; Escherichia coli strain 1): 1
Minimum inhibitory concentration ([2]; Escherichia coli strain 2): 16
Minimum inhibitory concentration ([2]; Escherichia coli strain 3): 16
Minimum inhibitory concentration ([2]; Escherichia coli strain 4): 32
Minimum inhibitory concentration ([2]; Escherichia coli strain 5): 32
Minimum inhibitory concentration ([3]; Klebsiella pneumoniae strain 1, Muller Hinton broth-cation adjusted): >128
Minimum inhibitory concentration ([3]; Klebsiella pneumoniae strain 2, Muller Hinton broth-cation adjusted): >128
Minimum inhibitory concentration ([3]; Klebsiella pneumoniae strain 3, Muller Hinton broth-cation adjusted): >128
Minimum inhibitory concentration ([3]; Klebsiella pneumoniae strain 4, Muller Hinton broth-cation adjusted): >128
Minimum inhibitory concentration ([3]; Klebsiella pneumoniae strain 5, Muller Hinton broth-cation adjusted): 64
Minimum inhibitory concentration ([4]; Pseudomonas aeruginosa strain 1, Muller Hinton broth-cation adjusted): 32
Minimum inhibitory concentration ([4]; Pseudomonas aeruginosa strain 2, Muller Hinton broth-cation adjusted): 64
Minimum inhibitory concentration ([4]; Pseudomonas aeruginosa strain 3, Muller Hinton broth-cation adjusted): 64
Minimum inhibitory concentration ([4]; Pseudomonas aeruginosa strain 4, Muller Hinton broth-cation adjusted): 64
Minimum inhibitory concentration ([4]; Pseudomonas aeruginosa strain 5, Muller Hinton broth-cation adjusted): 16
Minimum inhibitory concentration ([5]; Proteus mirabilis strain 1, Muller Hinton broth-cation adjusted): >128
Minimum inhibitory concentration ([5]; Proteus mirabilis strain 2, Muller Hinton broth-cation adjusted): >128
Minimum inhibitory concentration ([5]; Proteus mirabilis strain 3, Muller Hinton broth-cation adjusted): >128
Minimum inhibitory concentration ([5]; Proteus mirabilis strain 4, Muller Hinton broth-cation adjusted): >128
Minimum inhibitory concentration ([5]; Proteus mirabilis strain 5, Muller Hinton broth-cation adjusted): >128
Minimum inhibitory concentration ([6]; Staphylococcus aureus strain 1, Muller Hinton broth-cation adjusted): 32
Minimum inhibitory concentration ([6]; Staphylococcus aureus strain 2, Muller Hinton broth-cation adjusted): 32
Minimum inhibitory concentration ([6]; Staphylococcus aureus strain 3, Muller Hinton broth-cation adjusted): 16
Minimum inhibitory concentration ([6]; Staphylococcus aureus strain 4, Muller Hinton broth-cation adjusted): 16
Minimum inhibitory concentration ([6]; Staphylococcus aureus strain 5, Muller Hinton broth-cation adjusted): 16
Minimum inhibitory concentration ([7]; Streptococcus pneumoniae strain 1, Muller Hinton broth-cation adjusted): 128
Minimum inhibitory concentration ([7]; Streptococcus pneumoniae strain 2, Muller Hinton broth-cation adjusted): 128
Minimum inhibitory concentration ([7]; Streptococcus pneumoniae strain 3, Muller Hinton broth-cation adjusted): 128
Minimum inhibitory concentration ([7]; Streptococcus pneumoniae strain 4, Muller Hinton broth-cation adjusted): 128
Minimum inhibitory concentration ([7]; Streptococcus pneumoniae strain 5, Muller Hinton broth-cation adjusted): 64
Minimum inhibitory concentration ([8]; Serratia marcescens strain 1, Muller Hinton broth-cation adjusted): >128
Minimum inhibitory concentration ([8]; Serratia marcescens strain 2, Muller Hinton broth-cation adjusted): >128
Minimum inhibitory concentration ([8]; Serratia marcescens strain 3, Muller Hinton broth-cation adjusted): >128
Minimum inhibitory concentration ([8]; Serratia marcescens strain 4, Muller Hinton broth-cation adjusted): >128
Minimum inhibitory concentration ([8]; Serratia marcescens strain 5, Muller Hinton broth-cation adjusted): >128
Minimum inhibitory concentration (C. glabrata; C. glabrata clinical yeast strain 1): 16
Minimum inhibitory concentration (C. glabrata; C. glabrata clinical yeast strain 2): 16
Minimum inhibitory concentration (C. glabrata; C. glabrata clinical yeast strain 3): 8
Minimum inhibitory concentration (C. glabrata; C. glabrata clinical yeast strain 4): 64
Minimum inhibitory concentration (C. parapsilosis; C. parapsilosis clinical yeast strain 1): 64
Minimum inhibitory concentration (C. parapsilosis; C. parapsilosis clinical yeast strain 2): 64
Minimum inhibitory concentration (C. parapsilosis; C. parapsilosis clinical yeast strain 3): 32
Minimum inhibitory concentration (C. parapsilosis; C. parapsilosis clinical yeast strain 4): 16
Minimum inhibitory concentration (Candida albicans; Candida albicans clinical yeast strain 1): 16
Minimum inhibitory concentration (Candida albicans; Candida albicans clinical yeast strain 2): 16
Minimum inhibitory concentration (Candida albicans; Candida albicans clinical yeast strain 3): 16
Minimum inhibitory concentration (Candida albicans; Candida albicans clinical yeast strain 4): 16
Minimum inhibitory concentration (Candida albicans; Candida albicans clinical yeast strain 5): 32
Minimum inhibitory concentration (C. quillermondiae): 16
